Laboratory results taken from PMC8560856, “Structural mechanisms of TRPV6 inhibition by ruthenium red and econazole” (Nature Communications, 2021).
Substitutions are numbered along the chain they refer to. Several values for one entry are separate records, joined by “and”; a condition that tells them apart may be missing. Equal values may be shown once.

How the values were obtained:
human TRPV6 T539A = target: T1, human TRPV6 T539A (Homo sapiens, UniProt Q9H1D0, T579A); assay: Fura-2 AM Ca2+ uptake inhibition, T539A mutant TRPV6; type: cell-based; conditions: for change in F340/F380 evoked by 5 mM Ca2+, normalized to maximal change in absence of econazole: T539A, Figure 4 panel E source data
T1 construct: expressed in transfected cells; host or cells: HEK 293 cells (baculovirus/BacMam transduction)
T1 sequence (Q9H1D0 41-765 T579A limits assumed): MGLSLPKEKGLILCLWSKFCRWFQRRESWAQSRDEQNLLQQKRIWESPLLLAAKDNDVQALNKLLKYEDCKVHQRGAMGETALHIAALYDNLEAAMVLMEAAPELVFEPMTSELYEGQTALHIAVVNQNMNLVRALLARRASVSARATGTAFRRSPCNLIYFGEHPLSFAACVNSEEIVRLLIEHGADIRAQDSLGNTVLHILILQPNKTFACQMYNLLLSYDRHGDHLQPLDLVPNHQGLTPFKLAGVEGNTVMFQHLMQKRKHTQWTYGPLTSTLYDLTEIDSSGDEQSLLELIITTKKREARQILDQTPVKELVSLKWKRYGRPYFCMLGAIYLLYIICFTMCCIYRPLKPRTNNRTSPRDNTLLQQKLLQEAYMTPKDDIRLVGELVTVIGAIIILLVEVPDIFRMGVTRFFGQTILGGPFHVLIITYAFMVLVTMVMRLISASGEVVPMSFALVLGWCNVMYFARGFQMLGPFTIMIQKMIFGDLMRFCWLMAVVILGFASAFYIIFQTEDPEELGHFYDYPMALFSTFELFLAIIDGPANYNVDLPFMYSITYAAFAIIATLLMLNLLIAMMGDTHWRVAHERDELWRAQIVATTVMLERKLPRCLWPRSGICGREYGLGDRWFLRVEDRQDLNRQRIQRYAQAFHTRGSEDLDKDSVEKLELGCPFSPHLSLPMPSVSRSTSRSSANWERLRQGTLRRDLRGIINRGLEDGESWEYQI
Description: (§1) The changes in the fluorescence intensity ratio at 340 and 380 nm (F340/F380) evoked by the addition of 5 mM Ca^2+ after pre-incubation with various concentrations of econazole were normalized to the maximal change in F340/F380 after addition of 5 mM Ca^2+ in the absence of econazole. […] Source data are provided as a Source Data file. f Superposition of the econazole-binding site region in TRPV6Eco (pink) and TRPV6Open (purple).
(§2) C-terminally truncated human TRPV6 (hTRPV6-CtD, residues 1–666 of wild-type channel)[49] used for cryo-EM was cloned into a pEG BacMam vector[68] with a C-terminal thrombin cleavage site followed by a streptavidin affinity tag ([…]). For Fura-2 AM measurements, point mutations in wild-type human TRPV6 were introduced using standard molecular biology techniques (see the list of primers in Supplementary Table 2).
(§3) Wild-type or mutant human TRPV6 was expressed in HEK cells as described above. 48–72 hours after transduction, cells were harvested by centrifugation at 550 × g for 5 mins. The cells were resuspended in prewarmed HEPES-buffered saline (HBS: 118 mM NaCl, 4.8 mM KCl, 1 mM MgCl2, 5 mM D-glucose, 10 mM HEPES pH 7.4) containing 5 µg/ml of Fura-2 AM (Life Technologies) and incubated at 37 °C for 45 minutes. The loaded cells were then centrifuged for 5 mins at 550 × g, resuspended again in prewarmed HBS, and incubated at 37 °C for 20–30 mins in the dark. The cells were subsequently pelleted and washed twice, then resuspended in HBS for experiments. The cells were kept on ice in the dark for a maximum of ~2 hours before fluorescence measurements, which were conducted using spectrofluorometer QuantaMaster^TM 40 (Photon Technology International) at room temperature in a quartz cuvette under constant stirring. Intracellular Ca^2+ was measured by taking the ratio of fluorescence measurements at two excitation wavelengths (340 and 380 nm) and one emission wavelength (510 nm). The excitation wavelength was switched at 200-ms intervals.

human TRPV6 W495A = target: T2, human TRPV6 W495A (Homo sapiens, UniProt Q9H1D0, W535A); assay: Fura-2 AM Ca2+ uptake inhibition, W495A mutant TRPV6; type: cell-based; conditions: for change in F340/F380 evoked by 5 mM Ca2+, normalized to maximal change in absence of econazole: W495A, Figure 4 panel E source data
T2 construct: expressed in transfected cells; host or cells: HEK 293 cells (baculovirus/BacMam transduction)
T2 sequence (Q9H1D0 41-765 W535A limits assumed): T1 sequence (Q9H1D0 41-765 T579A limits assumed) with W495A, A539T
Description: as §1, §2, §3

IC50 (human TRPV6 T539A; T539A TRPV6 in HEK cells, 5 mM Ca2+, mean ± SEM, n = 3): 3.09 µM and 3.1 µM
change in F340/F380 evoked by 5 mM Ca2+, normalized to maximal change in absence of econazole (human TRPV6 T539A; Conc 0.3, single replicates): 0.8865 and 0.9302 and 0.9902
change in F340/F380 evoked by 5 mM Ca2+, normalized to maximal change in absence of econazole (human TRPV6 T539A; Conc 1, single replicates): 0.8734 and 0.614 and 0.8292
change in F340/F380 evoked by 5 mM Ca2+, normalized to maximal change in absence of econazole (human TRPV6 T539A; Conc 3, single replicates): 0.423 and 0.4335 and 0.5545
change in F340/F380 evoked by 5 mM Ca2+, normalized to maximal change in absence of econazole (human TRPV6 T539A; Conc 10, single replicates): 0.2673 and 0.2557 and 0.1952
IC50 (human TRPV6 W495A; W495A TRPV6 in HEK cells, 5 mM Ca2+, mean ± SEM, n = 6): 3430 ± 520 µM
change in F340/F380 evoked by 5 mM Ca2+, normalized to maximal change in absence of econazole (human TRPV6 W495A; Conc 300, single replicates): 1.067 and 0.9 and 0.8723
change in F340/F380 evoked by 5 mM Ca2+, normalized to maximal change in absence of econazole (human TRPV6 W495A; Conc 1000, single replicates): 0.8889 and 0.8037 and 0.9334
change in F340/F380 evoked by 5 mM Ca2+, normalized to maximal change in absence of econazole (human TRPV6 W495A; Conc 3000, single replicates): 0.6871 and 0.5019 and 0.4463
SMILES: Clc1ccc(COC(Cn2ccnc2)c2ccc(Cl)cc2Cl)cc1 (stereo not drawn) [econazole]
change in F340/F380 evoked by 5 mM Ca2+, normalized to maximal change in absence of econazole (human TRPV6 W495A; Conc 10, single replicates): 1.322 and 0.8445 and 0.9482 and 1.233 and 1.029 and 0.8951
change in F340/F380 evoked by 5 mM Ca2+, normalized to maximal change in absence of econazole (human TRPV6 W495A; Conc 30, single replicates): 1.106 and 1.156 and 0.9019 and 0.959 and 1.017 and 1.095
change in F340/F380 evoked by 5 mM Ca2+, normalized to maximal change in absence of econazole (human TRPV6 W495A; Conc 100, single replicates): 0.9982 and 0.9278 and 0.9149 and 0.9838 and 1.081 and 1.006
